Series [1] is described as follows: Liver metabolic stability assay, gpLM. Type of series: in vitro ADME, guinea pig. The following applies: guinea pig microsomes, 1 mg protein/ml, 5 μM test compound, 15 min, 37 °C.
Series [2] relates to Scedosporium prolificans IHEM21157. Description: Antifungal activity in vitro (resazurin susceptibility screen), Inf. I. The following applies: Lomentospora prolificans, 37 °C, 48 hours, resa time 17 hours, read-out: Inf. I pIC50 (converted). Type of series: cell-based. Put shortly:
(§1)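 Susceptibility was tested on pre-made plates bearing spotted serial compound dilutions (stored at 4 °C in darkness, maximum 2 weeks). Cryopreserved fungal stocks, diluted 1/1000 right before use, supplied 10^3 cfu per well, with drug-free and medium-only wells as controls.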
(In general: Alamar Blue is a resazurin reagent that responds to reducing activity.)

In series [3] the test system is Mucor circinelloides IHEM21105. Description: Antifungal activity in vitro (resazurin susceptibility screen), Inf. L. The conditions noted are these: 27 °C, 48 hours, resa time 17 hours, read-out: Inf. L pIC50 (converted). Type of series: cell-based. As to the method:
The standard susceptibility screen was performed in 96-well plates (U-bottom, Greiner Bio-One). […] These serial dilutions (10 n1) were then spotted onto test-plates that could be stored in the dark at 4° C. for a maximum period of 2 weeks. […] The different fungal species/isolates (Table 3a) were cryopreserved and 1/1000 diluted in medium just prior to use. A standard inoculum of 200 μl containing 10^3 colony-forming unit (cfu) was then added to each well. A positive control (100% growth=fungal culture without antifungal) and a negative control (0% growth ═RPMI-MOPS medium) were included on each plate. […] [table]

The target in the next series is CYP3A4 (Homo sapiens, UniProt P08684). Description: Cytochrome P450 inhibition, Protocol A, cDNA expressed proteins, fluorogenic substrates. Type of series: in vitro ADME. The conditions noted are these: % inhibition at 10 μM, cDNA expressed protein; for hCYP3A4_BFC_Pct_Inh: substrate BFC; for hCYP3A4_BQ_Pct_Inh: substrate BQ; for hCYP3A4_DBF_Pct_Inh: substrate DBF. Put shortly: (§2)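 cDNA-expressed enzymes with fluorogenic substrates (three separate ones for CYP3A4) in sodium/potassium buffer pH 7.4 plus NADPH-generating system. Compounds at 1 nM to 10 μM final, prewarmed 5 min at 37° C, reaction started with NADP+, stopped, then fluorescence measured.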

The next series has as its target CYP2C9 (Homo sapiens, UniProt P11712). Description: Cytochrome P450 inhibition, Protocol A, cDNA expressed proteins, fluorogenic substrate. The following applies: % inhibition at 10 μM; substrate MFC; cDNA expressed protein. Type of series: in vitro ADME. Put shortly:
as §2

In another series the target is CYP2D6 (Homo sapiens, UniProt P10635). Described as above. Type of series: in vitro ADME. The conditions noted are these: % inhibition at 10 μM; substrate AMMC; cDNA expressed protein. Put shortly:
as §2

The next series deals with T1, CYP1A2 (Homo sapiens, UniProt P05177).
T1 sequence (P05177 1-516): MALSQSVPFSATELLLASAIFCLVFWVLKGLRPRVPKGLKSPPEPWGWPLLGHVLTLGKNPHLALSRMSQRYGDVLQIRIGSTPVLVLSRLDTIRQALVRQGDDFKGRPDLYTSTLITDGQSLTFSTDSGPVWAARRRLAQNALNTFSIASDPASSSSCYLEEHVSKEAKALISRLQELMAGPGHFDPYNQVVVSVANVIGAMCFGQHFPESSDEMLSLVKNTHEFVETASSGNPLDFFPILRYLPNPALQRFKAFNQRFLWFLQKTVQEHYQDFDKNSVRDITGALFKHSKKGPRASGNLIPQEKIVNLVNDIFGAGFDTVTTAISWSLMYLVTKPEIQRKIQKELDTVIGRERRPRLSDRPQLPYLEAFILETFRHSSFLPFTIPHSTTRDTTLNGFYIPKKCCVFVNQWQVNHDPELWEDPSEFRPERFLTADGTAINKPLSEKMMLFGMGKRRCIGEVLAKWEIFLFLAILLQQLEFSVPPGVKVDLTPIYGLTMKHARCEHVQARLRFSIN
The series is described as above. The following applies: % inhibition at 10 μM; substrate CEC; cDNA expressed protein. Type of series: in vitro ADME. Put shortly:
as §2

Another series has as its system Rhizopus oryzae IHEM5223. In words: Antifungal activity in vitro (resazurin susceptibility screen), Inf. J. Type of series: cell-based. The conditions noted are these: Rhizopus arrhizus, 37 °C, 24 hours, resa time 6 hours, read-out: Inf. J pIC50 (converted). The essentials:
as §1

In series [4] the test system is Scedosporium apiospermum IHEM3817. Description: Antifungal activity in vitro (resazurin susceptibility screen), Inf. H. Type of series: cell-based. The following applies: 37 °C, 48 hours, resa time 17 hours, read-out: Inf. H pIC50 (converted). Put shortly:
as §1

In series [5] the test system is Candida parapsilosis B66126. Description: Antifungal activity in vitro (resazurin susceptibility screen), Inf. D. Type of series: cell-based. The conditions noted are these: Lodderomyces parapsilosis; Candida parapsilosis B66126; 37 °C, 24 hours, resa time 4 hours; read-out: Inf. D pIC50 (converted). Put shortly:
(§3)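 Each well was inoculated with 10^3 cfu of fungus onto dried, pre-spotted compound serial dilutions in RPMI-MOPS medium, with fungal growth read by resazurin. Growth was referenced to drug-free culture (100%) and medium-only (0%) controls on each plate.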

A further series concerns Microsporum canis B68128. Description: Antifungal activity in vitro (resazurin susceptibility screen), Inf. B. Type of series: cell-based. The conditions noted are these: Microsporum canis, B68128, Microsporum canis B68128; 27 °C, 9 days, resa time 24 hours; read-out: Inf. B pIC50 (converted). Put shortly: as §3

The record followed here is patent US9040523B2, “Antifungal 5,6-dihydro-4H-pyrrolo[1,2-α][1,4]-benzodiazepines and 6H-pyrrolo[1,2-α][1,4]benzodiazepines substituted with benzene derivatives” (JANSSEN PHARMACEUTICA NV, priority 2010, dated 2015).

Sequence of CYP3A4 (P08684 whole entry): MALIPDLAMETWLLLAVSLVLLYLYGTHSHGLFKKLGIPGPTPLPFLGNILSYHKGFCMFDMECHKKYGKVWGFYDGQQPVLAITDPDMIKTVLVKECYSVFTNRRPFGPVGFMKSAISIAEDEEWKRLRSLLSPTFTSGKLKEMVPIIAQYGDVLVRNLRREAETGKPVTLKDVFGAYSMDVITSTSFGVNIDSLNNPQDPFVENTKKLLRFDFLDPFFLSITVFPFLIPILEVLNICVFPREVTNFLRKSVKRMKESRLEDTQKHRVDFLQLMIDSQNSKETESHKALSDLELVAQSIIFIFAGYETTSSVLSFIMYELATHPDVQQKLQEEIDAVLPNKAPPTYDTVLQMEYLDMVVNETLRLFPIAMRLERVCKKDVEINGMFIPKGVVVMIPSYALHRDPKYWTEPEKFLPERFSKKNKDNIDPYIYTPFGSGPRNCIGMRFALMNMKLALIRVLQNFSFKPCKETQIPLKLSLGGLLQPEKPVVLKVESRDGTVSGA
Sequence of CYP2D6 (P10635 whole entry): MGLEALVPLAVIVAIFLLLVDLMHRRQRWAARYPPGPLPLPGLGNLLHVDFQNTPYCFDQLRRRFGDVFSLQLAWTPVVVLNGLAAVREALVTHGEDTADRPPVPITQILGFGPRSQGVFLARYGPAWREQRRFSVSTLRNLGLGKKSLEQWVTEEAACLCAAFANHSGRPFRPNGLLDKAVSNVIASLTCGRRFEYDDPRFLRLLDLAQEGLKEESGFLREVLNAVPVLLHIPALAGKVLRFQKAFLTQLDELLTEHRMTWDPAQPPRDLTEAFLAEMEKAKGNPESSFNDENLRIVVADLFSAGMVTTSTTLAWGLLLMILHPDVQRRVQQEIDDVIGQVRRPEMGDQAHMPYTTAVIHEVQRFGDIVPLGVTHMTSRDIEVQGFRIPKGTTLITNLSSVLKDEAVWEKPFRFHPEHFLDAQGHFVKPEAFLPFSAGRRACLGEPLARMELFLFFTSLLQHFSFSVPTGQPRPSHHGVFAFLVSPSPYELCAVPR
Sequence of CYP2C9 (P11712 whole entry): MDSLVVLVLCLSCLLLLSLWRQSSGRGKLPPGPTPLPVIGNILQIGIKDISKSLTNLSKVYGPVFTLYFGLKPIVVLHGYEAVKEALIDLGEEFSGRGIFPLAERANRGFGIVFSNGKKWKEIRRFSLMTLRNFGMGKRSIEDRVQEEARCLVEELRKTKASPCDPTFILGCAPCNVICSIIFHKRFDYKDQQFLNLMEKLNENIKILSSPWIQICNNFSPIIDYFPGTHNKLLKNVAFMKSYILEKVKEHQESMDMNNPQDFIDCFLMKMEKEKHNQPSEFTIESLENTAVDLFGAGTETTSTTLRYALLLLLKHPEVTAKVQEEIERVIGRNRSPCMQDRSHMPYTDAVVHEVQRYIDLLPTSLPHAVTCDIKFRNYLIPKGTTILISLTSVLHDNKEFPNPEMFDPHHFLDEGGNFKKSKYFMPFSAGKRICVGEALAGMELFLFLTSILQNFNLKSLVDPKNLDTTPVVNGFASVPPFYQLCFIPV

Consider `CC(=O)c1ccc(C2=NCc3cccc(Cl)c3-n3cccc32)cc1` [Compound 15, 1-[4-(10-chloro-6H-pyrrolo[1,2-a][1,4]benzodiazepin-4-yl)phenyl]-ethanone], for which the “%-compound metabolised Met_gpLM” value in series [1] was 44%. Besides, the IC50 is 2 µM in series [2]; more than 63.1 µM in [3]; more than 63.1 µM in the series with Rhizopus oryzae IHEM5223; 10 µM in series [4]; more than 63.1 µM in [5]; 0.631 µM with Microsporum canis B68128. Besides, on CYP3A4, the hCYP3A4_BFC_Pct_Inh is on record as 1%. Besides, the hCYP3A4_BQ_Pct_Inh on CYP3A4 was determined as 40%. On CYP3A4, this molecule gave a hCYP3A4_DBF_Pct_Inh of 16%. Further, the hCYP2C9_MFC_Pct_Inh at CYP2C9 stood at 60%. The same molecule yielded a hCYP2D6_AMMC_Pct_Inh on CYP2D6 of 63%. Moreover, the hCYP1A2_CEC_Pct_Inh at CYP1A2 is 38%.
In the case of `CC(=O)c1cccc(C2=NCc3c(Cl)cccc3-n3cccc32)c1` [Compound 16, 1-[3-(7-chloro-6H-pyrrolo[1,2-a][1,4]benzodiazepin-4-yl)phenyl]-ethanone], the “%-compound metabolised Met_gpLM” value in series [1] came out at 100%. In addition, the IC50 in series [2] is more than 63.1 µM; in series [3] it was more than 63.1 µM; in the series on Rhizopus oryzae IHEM5223, more than 63.1 µM; in [4], more than 63.1 µM; in series [5], more than 63.1 µM; in the series on Microsporum canis B68128, 0.316 µM. The molecule also gave a hCYP3A4_BFC_Pct_Inh on CYP3A4 of 29%. At CYP3A4, this molecule came in with a hCYP3A4_BQ_Pct_Inh of 46%. The hCYP3A4_DBF_Pct_Inh at CYP3A4 came to 64%. The same molecule returned a hCYP2C9_MFC_Pct_Inh on CYP2C9 of 84%. On CYP2D6, the hCYP2D6_AMMC_Pct_Inh worked out at 55%. Also, the hCYP1A2_CEC_Pct_Inh at CYP1A2 stood at 55%.
Consider `CC(=O)c1cc(C2=NCc3c(Cl)cccc3-n3cccc32)ccc1F` [Compound 19, 1-[5-(7-chloro-6H-pyrrolo[1,2-a][1,4]benzodiazepin-4-yl)-2-fluorophenyl]-ethanone], for which the “%-compound metabolised Met_gpLM” value in series [1] is listed as 80%. For the same molecule, the IC50 in [2] is 1.26 µM; in series [3] it was more than 63.1 µM; with Rhizopus oryzae IHEM5223 it was more than 63.1 µM; in series [4], more than 63.1 µM; in series [5] it was more than 63.1 µM; with Microsporum canis B68128, 1.58 µM. In addition, the hCYP3A4_BFC_Pct_Inh on CYP3A4 is 26%. The hCYP3A4_BQ_Pct_Inh on CYP3A4 was 49%. The molecule also displayed a hCYP3A4_DBF_Pct_Inh at CYP3A4 of 49%. This molecule also gave a hCYP2C9_MFC_Pct_Inh on CYP2C9 of 60%. Besides, the hCYP2D6_AMMC_Pct_Inh on CYP2D6 is recorded as 33%. This molecule also gave a hCYP1A2_CEC_Pct_Inh on CYP1A2 of 44%.
With `CC(=O)c1ccc(C2=NCc3c(F)cccc3-n3cccc32)cc1` [Compound 20, 1-[4-(7-fluoro-6H-pyrrolo[1,2-a][1,4]benzodiazepin-4-yl)phenyl]-ethanone], the “%-compound metabolised Met_gpLM” value in series [1] came to 88%. Moreover, the IC50 in series [2] was 0.631 µM; in [3], more than 63.1 µM; in the series on Rhizopus oryzae IHEM5223, more than 63.1 µM; in [4], more than 63.1 µM; in series [5], more than 63.1 µM; in the series on Microsporum canis B68128, 1.26 µM. On CYP3A4, this molecule yielded a hCYP3A4_BFC_Pct_Inh of 1%. Moreover, the hCYP3A4_BQ_Pct_Inh at CYP3A4 stood at 25%. On CYP3A4, this molecule came in with a hCYP3A4_DBF_Pct_Inh of 5%. On CYP2C9, this molecule showed a hCYP2C9_MFC_Pct_Inh of 43%. Moreover, the hCYP2D6_AMMC_Pct_Inh at CYP2D6 is given as 20%. For the same molecule, the hCYP1A2_CEC_Pct_Inh on CYP1A2 turned out to be 18%.
Turning to `CC(=O)c1ccc(C2=NCc3c(Cl)cc(Cl)cc3-n3cccc32)cc1` [Compound 22, 1-[4-(7,9-dichloro-6H-pyrrolo[1,2-a][1,4]benzodiazepin-4-yl)phenyl]-ethanone], the “%-compound metabolised Met_gpLM” value in series [1] stood at 73%. The IC50 in [2] is 1.26 µM; in [3], more than 63.1 µM; with Rhizopus oryzae IHEM5223, more than 63.1 µM; in series [4], 50.1 µM; in [5] it was 25.1 µM; in the series with Microsporum canis B68128 it was 0.1 µM. The hCYP3A4_BFC_Pct_Inh on CYP3A4 is listed as 39%. Also, the hCYP3A4_BQ_Pct_Inh at CYP3A4 is reported as 63%. The hCYP3A4_DBF_Pct_Inh at CYP3A4 was 89%. The molecule further registered a hCYP2C9_MFC_Pct_Inh on CYP2C9 of 85%. Besides, the hCYP2D6_AMMC_Pct_Inh at CYP2D6 is 53%. This molecule yielded a hCYP1A2_CEC_Pct_Inh at CYP1A2 of 20%.
`CC(=O)c1ccc(C2=NCc3c(F)cc(F)cc3-n3cccc32)cc1` [Compound 24, 1-[4-(7,9-difluoro-6H-pyrrolo[1,2-a][1,4]benzodiazepin-4-yl)phenyl]-ethanone]: in series [1], the “%-compound metabolised Met_gpLM” value came to 53%. The IC50 in series [2] was 2.51 µM; in series [3], more than 63.1 µM; with Rhizopus oryzae IHEM5223 it was more than 63.1 µM; in series [4] it was 7.94 µM; in [5], 3.98 µM; with Microsporum canis B68128, 2 µM. Moreover, the hCYP3A4_BFC_Pct_Inh at CYP3A4 came to 3%. The molecule further displayed a hCYP3A4_BQ_Pct_Inh at CYP3A4 of 39%. Besides, on CYP3A4, the hCYP3A4_DBF_Pct_Inh stood at 3%. The molecule also came in with a hCYP2C9_MFC_Pct_Inh on CYP2C9 of 54%. Besides, the hCYP2D6_AMMC_Pct_Inh at CYP2D6 is listed as 3%. Further, at CYP1A2, the hCYP1A2_CEC_Pct_Inh was determined as 18%.
